# Source: patent publication US10456379B2, “Imidazole-based antimicrobial agents” (priority 2014, dated 2019)
# Test system: Streptococcus pneumoniae (Chester, ATCC49619)
# Assay: Broth microdilution MIC assay, Streptococcus pneumoniae
# Type: cell-based
# Conditions: MIC class score, MIC100, broth microdilution
row,Structure (SMILES),Antibacterial activity Streptococcus pneumoniae
1,Cc1nc(-c2ccc(-c3cc(F)ccc3C(F)(F)F)o2)[nH]c1-c1ccccc1 [31a],3 (MIC100 of 2-5 μg/ml)
2,Cc1[nH]c(-c2cc(C)n(-c3ccc(Cl)cc3)c2C)nc1-c1ccccc1 [compound 8],3 (MIC100 of 2-5 μg/ml)
3,Cc1[nH]c(-c2ccc(-c3ccccc3C(F)(F)F)o2)nc1-c1ccc(Br)cc1 [compound 25],3 (MIC100 of 2-5 μg/ml)
4,Cc1nc(-c2ccc(-c3cc(C(F)(F)F)cc(C(F)(F)F)c3)o2)[nH]c1-c1ccccc1 [compound 35],2 (MIC100 of 6-10 μg/ml)
5,Cc1nc(-c2ccc(-c3cc(C(F)(F)F)ccc3Cl)o2)[nH]c1-c1ccccc1 [compound 40],2 (MIC100 of 6-10 μg/ml)
6,CCc1ccc(-c2ccc(-c3nc(-c4ccccc4)c(C)[nH]3)o2)cc1 [compound 53],3 (MIC100 of 2-5 μg/ml)
7,Cc1ccc(-c2ccc(-c3nc(-c4ccccc4)c(C)[nH]3)s2)cc1 [compound 54],2 (MIC100 of 6-10 μg/ml)
8,Cc1ccc(-c2nc(-c3nc(-c4ccccc4)c(C)[nH]3)co2)cc1 [compound 57],3 (MIC100 of 2-5 μg/ml)
9,Cc1ccccc1-c1ccc(-c2nc(C)c(-c3ccccc3)[nH]2)o1 [compound 61],3 (MIC100 of 2-5 μg/ml)
10,Cc1cccc(C)c1-c1ccc(-c2nc(C)c(-c3ccccc3)[nH]2)o1 [compound 62],3 (MIC100 of 2-5 μg/ml)
11,FC(F)(F)Oc1ccccc1-c1ccc(-c2ncc(-c3ccccc3)[nH]2)o1 [compound 63],3 (MIC100 of 2-5 μg/ml)
12,Cc1nc(-c2ccc(-c3ccccc3N(C)C)o2)[nH]c1-c1ccccc1 [compound 71],3 (MIC100 of 2-5 μg/ml)
13,Cc1[nH]c(-c2cnn(-c3ccccc3)n2)nc1-c1ccccc1 [compound 73],2 (MIC100 of 6-10 μg/ml)
14,Cc1nc(-c2ccc(-c3ccccc3Br)o2)[nH]c1C [compound 84],2 (MIC100 of 6-10 μg/ml)
15,Cc1nc(-c2ccc(-c3ccccc3Cl)o2)[nH]c1C [compound 86],3 (MIC100 of 2-5 μg/ml)
16,Cc1nc(-c2ccc(-c3cccc4[nH]ccc34)o2)[nH]c1-c1ccccc1 [compound 138],2 (MIC100 of 6-10 μg/ml)
17,Cc1nc(-c2ccc(-c3ccc(O)cc3C(F)(F)F)o2)[nH]c1-c1ccccc1 [compound 139],3 (MIC100 of 2-5 μg/ml)

row,Structure (SMILES),Antibacterial activity Streptococcus pneumoniae
1,Cc1nc(-c2ccc(/C=C/c3ccccc3)o2)[nH]c1-c1ccccc1 [compound 143],3 (MIC100 of 2-5 μg/ml)
2,Cc1nc(-c2ccc(-c3ccc4[nH]ccc4c3)o2)[nH]c1-c1ccccc1 [compound 144],3 (MIC100 of 2-5 μg/ml)
3,Cc1nc(-c2ccc(-c3cccc(F)c3)o2)[nH]c1-c1ccccc1 [compound 146],3 (MIC100 of 2-5 μg/ml)
4,Cc1nc(-c2ccc(-c3ccc(F)cc3)o2)[nH]c1-c1ccccc1 [compound 148],3 (MIC100 of 2-5 μg/ml)
5,Cc1nc(-c2ccc(-c3ccc4cc[nH]c4c3)o2)[nH]c1-c1ccccc1 [compound 152],3 (MIC100 of 2-5 μg/ml)
6,Cc1nc(-c2ccc(-c3ccc(F)c(F)c3)o2)[nH]c1-c1ccccc1 [compound 153],3 (MIC100 of 2-5 μg/ml)
7,Cc1nc(-c2ccc(-c3ccc(O)c(C(F)(F)F)c3)o2)[nH]c1-c1ccccc1 [compound 155],3 (MIC100 of 2-5 μg/ml)
8,Cc1nc(-c2ccc(-c3ccc(O)c(Cl)c3)o2)[nH]c1-c1ccccc1 [compound 157],3 (MIC100 of 2-5 μg/ml)
9,Cc1nc(-c2ccc(-c3ccc(O)cc3Cl)o2)[nH]c1-c1ccccc1 [compound 158],3 (MIC100 of 2-5 μg/ml)
10,Cc1nc(-c2ccc(-c3ccc4occc4c3)o2)[nH]c1-c1ccccc1 [compound 159],3 (MIC100 of 2-5 μg/ml)
11,Cc1nc(-c2ccc(-c3cccc4cc[nH]c34)o2)[nH]c1-c1ccccc1 [compound 161],3 (MIC100 of 2-5 μg/ml)
12,Cc1[nH]c(-c2ccc(-c3ccccc3F)o2)nc1-c1ccccc1 [compound 162],3 (MIC100 of 2-5 μg/ml)
13,Cc1[nH]c(-c2ccc(-c3c(F)cccc3F)o2)nc1-c1ccccc1 [compound 163],3 (MIC100 of 2-5 μg/ml)
14,Cc1cc(F)ccc1-c1ccc(-c2nc(-c3ccccc3)c(C)[nH]2)o1 [compound 164],3 (MIC100 of 2-5 μg/ml)
15,Cc1[nH]c(-c2ccc(-c3ccc(C(C)(C)C)cc3)o2)nc1-c1ccccc1 [compound 165],2 (MIC100 of 6-10 μg/ml)
16,Cc1nc(-c2ccc(-c3ccc(O)cc3F)o2)[nH]c1-c1ccccc1 [compound 168],3 (MIC100 of 2-5 μg/ml)

# Same assay, conditions: Streptococcus pneumoniae, ATCC49619; read-out: Antibacterial activity, SP (Streptococcus pneumoniae), MIC class
row,Structure (SMILES),MIC
1,Cc1nc(-c2ccc(-c3cccc(Cl)c3)o2)[nH]c1-c1ccccc1 [compound 4],< 1 µg/mL
2,Cc1nc(-c2ccc(-c3ccc(Cl)cc3)o2)[nH]c1-c1ccccc1 [compound 5],< 1 µg/mL
3,Cc1[nH]c(-c2ccc(-c3ccc(F)cc3)s2)nc1-c1ccccc1 [compound 7],2 to 5 µg/mL
4,Cc1[nH]c(-c2cc(C)n(-c3ccc(Cl)cc3)c2C)nc1-c1ccccc1 [compound 8],2 to 5 µg/mL
5,Cc1[nH]c(-c2cc(C)n(-c3ccc(F)cc3F)c2C)nc1-c1ccccc1 [compound 9],2 to 5 µg/mL
6,Cc1[nH]c(-c2cc(C)n(-c3ccc(F)c(F)c3F)c2C)nc1-c1ccccc1 [compound 10],2 to 5 µg/mL
7,Cc1[nH]c(-c2csc(-c3ccc(F)cc3)n2)nc1-c1ccccc1 [compound 11],2 to 5 µg/mL
8,Cc1[nH]c(-c2ccc(-c3cccc(Cl)c3)s2)nc1-c1ccccc1 [compound 12],2 to 5 µg/mL
9,Cc1[nH]c(-c2ccc(-c3cccc(Br)c3)s2)nc1-c1ccccc1 [compound 13],2 to 5 µg/mL
10,Cc1[nH]c(-c2csc(-c3cccc(Br)c3)n2)nc1-c1ccccc1 [compound 14],2 to 5 µg/mL
11,Cc1nc(-c2ccc(-c3ccccc3C(F)(F)F)o2)[nH]c1-c1ccccc1Cl [compound 20],< 1 µg/mL
12,Cc1[nH]c(-c2ccc(-c3ccccc3C(F)(F)F)o2)nc1-c1ccc(Br)cc1 [compound 25],2 to 5 µg/mL
13,Cc1[nH]c(-c2ccc(-c3ccccc3OC(F)(F)F)o2)nc1-c1ccc(C(F)(F)F)cc1 [compound 26],2 to 5 µg/mL
14,C#Cc1ccc(-c2[nH]c(-c3ccc(-c4ccccc4C(F)(F)F)o3)nc2C)cc1 [compound 27],< 1 µg/mL
15,CCc1ccc(-c2[nH]c(-c3ccc(-c4ccccc4C(F)(F)F)o3)nc2C)cc1 [compound 28],2 to 5 µg/mL
16,COc1ccc(-c2ccc(-c3nc(C)c(-c4ccccc4)[nH]3)o2)c(C(F)(F)F)c1 [compound 31],< 1 µg/mL

row,Structure (SMILES),MIC
1,Cc1nc(-c2ccc(-c3cc(C(F)(F)F)ccc3Cl)o2)[nH]c1-c1ccccc1 [compound 40],6 to 10 µg/mL
2,Cc1ccc(-c2ccc(-c3nc(-c4ccccc4)c(C)[nH]3)o2)cc1 [compound 52],6 to 10 µg/mL
3,CCc1ccc(-c2ccc(-c3nc(-c4ccccc4)c(C)[nH]3)o2)cc1 [compound 53],2 to 5 µg/mL
4,Cc1ccc(-c2ccc(-c3nc(-c4ccccc4)c(C)[nH]3)s2)cc1 [compound 54],6 to 10 µg/mL
5,Cc1ccc(-c2ncc(-c3nc(-c4ccccc4)c(C)[nH]3)s2)cc1 [compound 55],2 to 5 µg/mL
6,Cc1ccc(-c2nc(-c3nc(-c4ccccc4)c(C)[nH]3)cs2)cc1 [compound 56],2 to 5 µg/mL
7,Cc1ccc(-c2nc(-c3nc(-c4ccccc4)c(C)[nH]3)co2)cc1 [compound 57],2 to 5 µg/mL
8,Cc1[nH]c(-c2cc(C)n(-c3ccc(C(C)C)cc3)c2C)nc1-c1ccccc1 [compound 58],< 1 µg/mL
9,Cc1[nH]c(-c2cc(C)n(-c3ccc4c(c3)CCC4)c2C)nc1-c1ccccc1 [compound 59],2 to 5 µg/mL
10,Cc1ccccc1-c1ccc(-c2nc(C)c(-c3ccccc3)[nH]2)o1 [compound 61],2 to 5 µg/mL
11,Cc1cccc(C)c1-c1ccc(-c2nc(C)c(-c3ccccc3)[nH]2)o1 [compound 62],2 to 5 µg/mL
12,FC(F)(F)Oc1ccccc1-c1ccc(-c2ncc(-c3ccccc3)[nH]2)o1 [compound 63],2 to 5 µg/mL
13,Cc1nc(-c2ccc(-c3ccccc3N(C)C)o2)[nH]c1-c1ccccc1 [compound 71],2 to 5 µg/mL
14,Cc1[nH]c(-c2coc(-c3ccccc3C(F)(F)F)c2)nc1-c1ccccc1 [compound 72],6 to 10 µg/mL
15,Cc1[nH]c(-c2cnn(-c3ccccc3)n2)nc1-c1ccccc1 [compound 73],6 to 10 µg/mL
16,Cc1[nH]c(-c2ccc(-c3ccccc3)s2)nc1-c1ccccc1 [compound 74],2 to 5 µg/mL

# Test system: Staphylococcus aureus MRSA (COL)
# Assay: Broth microdilution MIC assay, Staphylococcus aureus MRSA (COL)
# Type: cell-based
# Conditions: MIC class score, MIC100, broth microdilution, COL strain
row,Structure (SMILES),Antibacterial activity Staphylococcus aureus (MRSA)
1,CCCc1nc(-c2coc(-c3ccccc3C(F)(F)F)c2)[nH]c1C [Compound 112],3 (MIC100 of 3-10 μg/ml)
2,CCCc1nc(-c2csc(-c3ccccc3C(F)(F)F)c2)[nH]c1C [Compound 113],3 (MIC100 of 3-10 μg/ml)
3,CCCc1nc(-c2sc(-c3ccccc3C(F)(F)F)c3c2OCCO3)[nH]c1C [Compound 114],3 (MIC100 of 3-10 μg/ml)
4,Cc1nc(-c2ccc(-c3ccc(F)cc3F)o2)[nH]c1-c1ccc(O)cc1 [compound 80],2 (MIC100 of 11-20 μg/ml)
5,CCCc1[nH]c(-c2ccc(-c3ccccc3Cl)s2)nc1C [compound 82],3 (MIC100 of 3-10 μg/ml)
6,CCCc1[nH]c(-c2ccc(-c3ccccc3)o2)nc1C [compound 94],3 (MIC100 of 3-10 μg/ml)
7,CCCc1nc(-c2ccc(-c3ccccc3N(C)C)o2)[nH]c1C [compound 98],3 (MIC100 of 3-10 μg/ml)
8,CCCc1nc(-c2ccc(-c3ccccc3C)o2)[nH]c1C [compound 100],2 (MIC100 of 11-20 μg/ml)
9,CCCc1nc(-c2ccc(-c3c(C)cccc3C)o2)[nH]c1C [compound 103],3 (MIC100 of 3-10 μg/ml)
10,CCCc1nc(-c2ccc(-c3ccc(C(F)(F)F)cc3)o2)[nH]c1C [compound 104],3 (MIC100 of 3-10 μg/ml)
11,CCCc1[nH]c(-c2ccc(-c3cccc4[nH]ccc34)o2)nc1C [compound 108],2 (MIC100 of 11-20 μg/ml)
12,CCCc1[nH]c(-c2ccc(-c3ccc(Cl)cc3Cl)o2)nc1C [compound 109],2 (MIC100 of 11-20 μg/ml)
13,CCCc1[nH]c(-c2ccc(-c3ccc(O)cc3C(F)(F)F)o2)nc1C [compound 110],3 (MIC100 of 3-10 μg/ml)

# Same assay, conditions: Staphylococcus aureus, MRSA, read-out: Antibacterial activity, MRSA (Staphylococcus aureus MRSA), MIC class
row,Structure (SMILES),MIC
1,Cc1nc(-c2ccc(-c3cccc(Cl)c3)o2)[nH]c1-c1ccccc1 [compound 4],11 to 20 µg/mL
